Source: ChEMBL document CHEMBL5058564, “EUbOPEN Chemogenomics Library 2 (Incucyte)” (2022)

How the values were obtained:
Assay type in all cases: toxicity, cell-based
HEK-293T = assay: Incucyte cell viability with HEK293T; settings: human, 10 µM, compound concentration 10 uM
Fibroblast = assay: Incucyte cell viability with human fibroblast; settings: 10 µM, compound concentration 10 uM
U2OS = assay: Incucyte cell viability with U2OS; settings: human, 10 µM, compound concentration 10 uM
[1] = 6 h, replicate number 1, timepoint 6 hours
[2] = 6 h, replicate number 2, timepoint 6 hours
[3] = 12 h, replicate number 1, timepoint 12 hours
[4] = 12 h, replicate number 2, timepoint 12 hours
[5] = 18 h, replicate number 1, timepoint 18 hours
[6] = 18 h, replicate number 2, timepoint 18 hours
[7] = 24 h, replicate number 1, timepoint 24 hours
[8] = 24 h, replicate number 2, timepoint 24 hours
[9] = 0 h, replicate number 1, timepoint 0 hours
[10] = 0 h, replicate number 2, timepoint 0 hours
Note: unitless GR value; below 1 slowed growth and below 0 cell loss.

SMILES	Growth Rate (HEK-293T; [1])	Growth Rate (HEK-293T; [2])	Growth Rate (HEK-293T; [3])	Growth Rate (HEK-293T; [4])	Growth Rate (HEK-293T; [5])	Growth Rate (HEK-293T; [6])	Growth Rate (HEK-293T; [7])	Growth Rate (HEK-293T; [8])	Growth Rate (Fibroblast; [1])	Growth Rate (Fibroblast; [2])	Growth Rate (Fibroblast; [3])	Growth Rate (Fibroblast; [4])	Growth Rate (Fibroblast; [5])	Growth Rate (Fibroblast; [6])	Growth Rate (Fibroblast; [7])	Growth Rate (Fibroblast; [8])	Growth Rate (U2OS; [1])	Growth Rate (U2OS; [5])	Growth Rate (U2OS; [7])	Growth Rate (Fibroblast; [10])	further results
CC(C)Oc1ccc(Cc2ccc(NC3=NCCN3)cc2)cc1	-0.2	-0.01	0.03	0.1	0.16	0.27	0.24	0.21	0.07	-0.09	0.4	0.19	0.28	0.64	0.42	0.46	0.26	0.82	0.84		Growth Rate (U2OS; [9]): -0.1; Growth Rate (U2OS; [10]): 0.45; Growth Rate (U2OS; [2]): 0.51; Growth Rate (U2OS; [3]): 0.74; Growth Rate (U2OS; [4]): 0.75; Growth Rate (U2OS; [6]): 0.91; Growth Rate (U2OS; [8]): 0.95
CN[C@@H](C)C(=O)N[C@H]1CCCC[C@H]2CC[C@@H](C(=O)N[C@@H](c3ccccc3)c3cn(CCCCc4ccc(CCCCn5cc([C@@H](NC(=O)[C@@H]6CC[C@@H]7CCCC[C@H](NC(=O)[C@H](C)NC)C(=O)N76)c6ccccc6)nn5)cc4)nn3)N2C1=O	0.5	0.74	0.73	0.75	0.93	0.8	0.66	0.84	0.17		0.57	0.75		0.88	0.71	0.81	0.83	0.97	1	0.01	Growth Rate (HEK-293T; [9]): 0.2; Growth Rate (HEK-293T; [10]): 0.49; Growth Rate (U2OS; [9]): -0.18
COc1ncc2cc(C(=O)Nc3cc(C(=O)NCc4cccc(Cl)c4)ccc3Cl)c(=O)[nH]c2n1	0.48	0.93	0.55	0.83	0.64	0.9	0.66	0.93	-0.08	-0.3	0.48	0.41	0.51		0.76		0.36	0.51	0.75	0.82	Growth Rate (Fibroblast; [9]): 0.34; Growth Rate (U2OS; [2]): 0.28; Growth Rate (U2OS; [4]): 0.69; Growth Rate (U2OS; [6]): 0.67; Growth Rate (U2OS; [8]): 0.69
CN(C)CCN(Cc1ccc(-c2ccc(CNCCc3ccccc3)cc2)cc1)C(=O)CCC1CCCC1.Cl.Cl	-0.93	-0.92	-0.74	-0.78	-0.55	-0.67	-0.46	-0.59	-1		-0.99		-0.96	-0.99	-0.93	-0.98	-1	-0.92	-0.86		Growth Rate (U2OS; [2]): -0.96; Growth Rate (U2OS; [3]): -0.99; Growth Rate (U2OS; [4]): -0.81; Growth Rate (U2OS; [6]): -0.64; Growth Rate (U2OS; [8]): -0.58
CO/C1=C/C(C)=C\[C@@H](C)[C@@H](O)[C@@H](C)C/C(C)=C\C=C/[C@H](OC)C([C@@H](C)[C@@H](O)[C@H](C)[C@@]2(O)C[C@@H](O)[C@H](C)[C@@H](C(C)C)O2)OC1=O (some centres undefined)	-0.8	-0.9	-0.61	-0.69	-0.45	-0.5	-0.36	-0.38	-0.77	-0.59	-0.79	-0.56	-0.72	-0.46	-0.61	-0.4	0.5	0.23	0.14	-0.31	Growth Rate (Fibroblast; [9]): 0.09; Growth Rate (U2OS; [2]): 0.63; Growth Rate (U2OS; [3]): 0.37; Growth Rate (U2OS; [4]): 0.39; Growth Rate (U2OS; [6]): 0.18; Growth Rate (U2OS; [8]): 0.12
C[N+]1(C)[C@@H]2C[C@@H](OC(=O)C(O)(c3cccs3)c3cccs3)C[C@H]1[C@@H]1O[C@@H]12.O.[Br-] [TIOTROPIUM BROMIDE]	0.86		0.87		0.7	0.99	0.79	0.91	-0.47		0.71	0.99	1	0.83	0.95	0.7	0.61	0.68	0.86	-0.05	Growth Rate (HEK-293T; [9]): 0.54; Growth Rate (HEK-293T; [10]): -0.14; Growth Rate (U2OS; [9]): 0.04; Growth Rate (U2OS; [10]): 0.9; Growth Rate (U2OS; [2]): 0.93; Growth Rate (U2OS; [3]): 0.64
CCCN(CCC)CCc1cccc2c1CC(=O)N2.Cl [ROPINIROLE HYDROCHLORIDE]	0.94										0.31		0.67		0.64		0.57	0.76		-0.1	Growth Rate (HEK-293T; [9]): 0.6; Growth Rate (HEK-293T; [10]): 0.1; Growth Rate (Fibroblast; [9]): 0.73; Growth Rate (U2OS; [9]): 0.4; Growth Rate (U2OS; [3]): 0.77
C=CCN1C[C@H](C(=O)N(CCCN(C)C)C(=O)NCC)C[C@@H]2c3cccc4[nH]cc(c34)C[C@H]21 [CABERGOLINE]	0.78	0.46	0.93						0.44	1	0.91									0.7	Growth Rate (Fibroblast; [9]): -0.05; Growth Rate (U2OS; [10]): -1
COC(c1ccccc1)(c1ccccc1)[C@H](Oc1nc(C)cc(C)n1)C(=O)O [AMBRISENTAN]			0.96		0.99		0.97		0.41	0.53	0.97	0.6								0.74	Growth Rate (HEK-293T; [10]): 0.79; Growth Rate (U2OS; [9]): -0.03; Growth Rate (U2OS; [10]): -1; Growth Rate (U2OS; [6]): 0.96
